In ChEMBL document CHEMBL1201862, “PubChem BioAssay data set” (2004):
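Tested at 5 concentrations; 48 h exposure; 96-well plates; endpoints linearly interpolated, else capped at highest concentration. The concentration for 50% growth inhibition is given as GI50.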 Calls of active or inactive are those of the source. Cut-off read from the data, not from the text of the source: active = GI50 up to about 1.1 µM and inactive = higher.

How the values were obtained:
Assay in all cases: inhibition of tumour cell growth, NCI panel, 48 h
786-0 = tested on: 786-0
EKVX = tested on: EKVX
HCC 2998 = tested on: HCC 2998
KM-20L2 = tested on: KM-20L2
KM12 = tested on: KM12
MOLT-4 = tested on: MOLT-4
Malme-3M = tested on: Malme-3M
OVCAR-4 = tested on: OVCAR-4
SNB-19 = tested on: SNB-19
SR = tested on: SR
TK-10 = tested on: TK-10
U-251 = tested on: U-251
UACC-257 = tested on: UACC-257
HOP-62 = tested on: HOP-62
HT-29 = tested on: HT-29

Structure (SMILES)	GI50 (786-0)	GI50 (EKVX)	GI50 (HCC 2998)	GI50 (KM-20L2)	GI50 (KM12)	GI50 (MOLT-4)	GI50 (Malme-3M)	GI50 (OVCAR-4)	GI50 (SNB-19)	GI50 (SR)	GI50 (TK-10)	GI50 (U-251)	GI50 (UACC-257)	GI50 (HOP-62)	GI50 (HT-29)
COC(=O)c1cccc2cccc(C(=O)Nc3ccc(Cl)cc3)c12	> 100 µM (inactive)	23.2 µM (inactive)	6.17 µM (inactive)	> 24.2 µM (inactive)	> 40.9 µM (inactive)	3.1 µM (inactive)	> 100 µM (inactive)	> 100 µM (inactive)	> 100 µM (inactive)	17.1 µM (inactive)	> 100 µM (inactive)	39.7 µM (inactive)	> 100 µM (inactive)		
Cc1cc(NS(=O)(=O)c2ccc(Nc3c4ccccc4nc4c(C(=O)Nc5ccc(S(N)(=O)=O)cc5)cccc34)cc2)no1	> 100 µM (inactive)	> 100 µM (inactive)		> 100 µM (inactive)	20.6 µM (inactive)	27 µM (inactive)	17.9 µM (inactive)	23.4 µM (inactive)	32.7 µM (inactive)		> 100 µM (inactive)	24.8 µM (inactive)	> 100 µM (inactive)	35.4 µM (inactive)	> 100 µM (inactive)
Cc1cccc(C(C)(C)C)c1NC(=O)C(=O)Cc1nc2ccccc2s1	> 100 µM (inactive)	27.4 µM (inactive)	> 100 µM (inactive)	> 100 µM (inactive)	> 100 µM (inactive)	> 100 µM (inactive)	> 100 µM (inactive)	> 100 µM (inactive)	> 100 µM (inactive)		> 100 µM (inactive)	> 100 µM (inactive)	> 100 µM (inactive)	> 100 µM (inactive)	> 100 µM (inactive)
CC(/C=C1\CCC(CN(C)C)C1=O)c1cccc(Br)c1 (configuration not stated)	3.41 µM (inactive)	20.9 µM (inactive)	20.4 µM (inactive)	21.4 µM (inactive)	10.1 µM (inactive)	3.85 µM (inactive)	17.8 µM (inactive)	17 µM (inactive)	26 µM (inactive)		15.7 µM (inactive)	18.2 µM (inactive)	17.3 µM (inactive)	22.7 µM (inactive)	15.1 µM (inactive)
C#CCN(N=O)C(=O)NCCCCC(NC(=O)OCc1ccccc1)C(=O)OCc1ccccc1 (configuration not stated)	> 100 µM (inactive)	> 100 µM (inactive)	> 100 µM (inactive)	> 100 µM (inactive)	> 100 µM (inactive)	20.7 µM (inactive)	29.9 µM (inactive)	> 100 µM (inactive)	> 100 µM (inactive)		> 100 µM (inactive)	48.9 µM (inactive)	37.2 µM (inactive)	> 100 µM (inactive)	62.4 µM (inactive)
CC1OC(n2cc(Cl)c(=O)[nH]c2=O)C=C(OC(=O)c2ccccc2)C1=O (configuration not stated)	> 100 µM (inactive)	> 100 µM (inactive)		> 100 µM (inactive)		> 100 µM (inactive)	> 100 µM (inactive)	> 100 µM (inactive)	> 100 µM (inactive)		> 100 µM (inactive)	> 100 µM (inactive)	> 100 µM (inactive)	> 100 µM (inactive)	> 100 µM (inactive)
O=C1CCCc2ccc([N+](=O)[O-])c(O)c21	89.9 µM (inactive)	> 100 µM (inactive)	> 100 µM (inactive)	> 100 µM (inactive)	> 100 µM (inactive)	> 100 µM (inactive)	34.4 µM (inactive)	> 100 µM (inactive)	82.6 µM (inactive)	85.7 µM (inactive)	55.7 µM (inactive)	59.3 µM (inactive)	> 100 µM (inactive)	> 100 µM (inactive)	> 100 µM (inactive)
Sc1nnc(/C=C/c2ccc(Cl)c(Cl)c2)[nH]1	> 100 µM (inactive)	> 100 µM (inactive)	< 0.01 µM (active)	> 100 µM (inactive)	> 100 µM (inactive)	59.4 µM (inactive)	> 100 µM (inactive)		> 100 µM (inactive)		> 100 µM (inactive)	58.5 µM (inactive)	> 100 µM (inactive)	41.4 µM (inactive)	> 100 µM (inactive)
Cc1noc2cccc(O)c12	> 100 µM (inactive)	> 100 µM (inactive)	> 100 µM (inactive)	> 100 µM (inactive)	> 100 µM (inactive)	> 100 µM (inactive)	> 100 µM (inactive)	> 100 µM (inactive)	> 100 µM (inactive)		> 100 µM (inactive)	> 100 µM (inactive)	> 100 µM (inactive)	> 100 µM (inactive)	> 100 µM (inactive)
C[N+](C)(C)CC1CCCC/C1=N\OC(=O)c1ccccc1 (configuration not stated)	> 100 µM (inactive)	> 100 µM (inactive)	> 100 µM (inactive)	> 100 µM (inactive)	> 100 µM (inactive)	> 100 µM (inactive)	> 100 µM (inactive)	> 100 µM (inactive)	> 100 µM (inactive)	> 100 µM (inactive)	36.1 µM (inactive)	> 100 µM (inactive)	> 100 µM (inactive)	> 100 µM (inactive)	> 100 µM (inactive)
